From patent US7674771B2, “Antimicrobial peptides and utilization of the same” (Toagosei Co., Ltd, priority 2003, dated 2010)
Like-named read-outs stand apart in the source and are kept apart here. Ends that are not written are not given here.

Legend:
[1] = test system: methicillin-resistant Staphylococcus aureus (MRSA, No. 164 strain); assay: Treatment effect test on mice infected by MRSA, bacterial count in intestine content; assay type: in vivo; settings: oral 100 mg/kg
Description: The following test was performed to evaluate the treatment effect on mice infected by bacterial (MRSA) of sample 22 obtained by synthesis.
Mice (ICR, SLC, male, 5 weeks old) were prepared by rearing on drinking water mixed with amphotericin B (AMPH: product of Bristol-Myers Company) and tetracycline, such that their concentrations are 10 μg/mL (AMPH) and 2000 μg/mL (tetracycline) respectively, a week before the start of the test, and the immunity of the mice was weaken by administrating 200 mg/kg amount of cyclophosphamide into the abdominal for 3 days from the fourth day prior to the test.
Bacterial suspension prepared by suspending methicillin-resistant Staphylococcus aureus (MRSA, No. 164 strain) in 10% (w/v) of mucin solution was orally administered to the mice at a bacterial administration quantity of 10^8 cells/mouse, thereby eliciting MRSA infection.
One hour after the bacterial inoculation, antimicrobial agent prepared by suspending the test material (therefore polypeptide of sample 22) in 10% of gum arabic solution was orally administered. The administered quantity of suspension was 100 mg/kg. A total of 5 test groups, with each test group containing 5 test mice, were tested. For comparison, antimicrobial agent prepared by suspending vancomycin in 10% of gum arabic solution was orally administered to the test mice under the same conditions.
After the drug administration, test mice were slaughtered approximately 24 hours later, and the contents in the intestine extracted, and the bacterial count of MRSA examined. More specifically, 1.8 mL of physiological saline was added to and mixed with approximately 0.2 g of intestine contents. A fixed quantity of such mixture was smeared on mannitol agar medium (product of Nissui Pharmaceutical Co., Ltd) including gentamicin (GM) with a concentration of […], and cultured for 3 days at 37° C.

[2] = test system: Escherichia coli IFO 3972; assay: MIC by liquid medium dilution technique, 96-well microplate, gram-negative bacteria; assay type: cell-based
Description: (§1) Regarding the antimicrobial peptide (samples 1 to 20) related to the present invention, the antimicrobial activities (minimum inhibitory concentration: MIC) with respect to gram-negative bacteria (Escherichia coli IFO 3972) and gram-positive bacteria (Staphylococcus aureus IFO 12732) were determined by a liquid medium dilution technique using a 96-well microplate.
(§2) First, a drug (synthesized polypeptide) solution having a concentration of 40 times of the highest test concentration was prepared using sterile distilled water, and liquid-bouillon mediums (more specifically, “Mueller Hinton Broth” manufactured by DIFCO) including cation and having drug concentrations of 100, 50, 25, 12.5, 6.3, 3.1, 1.6 and 0.8 μM were respectively produced. The cation included was prepared as follows: dissolving 3.68 g of CaCl2.2H2O in 100 mL of purified water (10 mg.Ca^2+/mL), and thereafter adding 500 μL thereof into 100 mL of Mueller Hinton Broth; and dissolving 8.36 g of MgCl2.6H2O in 100 mL of purified water (10 mg.Mg^2+/mL), and thereafter adding 250 μL thereof into 100 mL of Mueller Hinton Broth. Thereafter, the produced liquid-bouillon mediums including the drug of each concentration were then fed to the 96-well microplate at […] a time.
(§3) At the same time, test bacteria cultured for 18 hours at 37° C. on an agar plate (“Muller Hinton Agar” manufactured by DIFCO) were gathered by scratching with a loop, and then suspended in a sterilized physiological saline. Bacterial suspension 5 μL prepared at an equivalent of 2×10^7 cells/mL was respectively inoculated (number of bacteria to be tested: approximately 1×10^6 cells/mL) onto the drug solution and fed to each well of the above-described microplate. After inoculation, the microplate was then incubated in an incubator at 37° C., and the presence of bacteria was evaluated based on the turbidity 24 hours later. The minimum drug concentration (polypeptide concentration), in which an increased in turbidity caused by bacteria was not detected at the time of measurement, was defined as MIC (minimum inhibitory concentration) (unit: μM) in the present embodiment. In addition, MIC were determined in the same manner using polymyxin B as a comparison.

S. aureus = assay type: cell-based, Staphylococcus aureus; settings: for Antimicrobial Activities (MIC) against S. aureus, horse serum concentration 20%: horse serum 20%
Description: as §2, §3
Next, the antimicrobial activities (MIC) against gram-positive bacteria (S. aureus) in the presence of serum were tested with the same method as Example 2. […] Thereafter, the produced liquid-bouillon mediums including the drug and the serum of each concentration were then fed to the 96-well microplate at […] a time, and MIC were determined by the method same as Example 2. Sample X in the table is a mixture of sample 1 and sample 16 based on a mass ratio of 1:1. “-” in the table indicate “untested”.

[3] = test system: Staphylococcus aureus IFO 12732; assay type: cell-based
Description: as §1, §2, §3

[4] = test system: Aspergillus niger IFO 6341; assay type: cell-based; settings: after 24 hours
Description: (§4) Antimicrobial activity against fungi (Aspergillus niger IFO 6341) of the antimicrobial peptides related to the present invention was tested according to a general antimycotic susceptibility test as follows.
More specifically, a slant or plate medium (“potato dextrose agar” medium manufactured by DIFCO was used typically) adhered with spores (conidia) was prepared in advance, and A. niger (IFO 6341; JIS test strain) were gathered from the medium by scratching the medium surface 4 to 5 times from bottom up with a 1 μL disposable loop and suspended in 25 mL of PBS (free of Mg, Ca) solution containing 0.05% of surfactant (Tween® 80). Thereafter, pipetting was performed using a measuring pipette or the like such that clusters of black spores disappeared completely. The spore concentration of the spore suspension prepared by such method was determined using a hemocytometer while the above-described surfactant containing PBS solution was being diluted accordingly, thereby deriving a spore suspension having a spore concentration of approximately 2.5×10^5 spores/mL. […]
Next, a test fungus suspension was prepared by adding, with respect to 10 part by mass of the above-described spore suspension, 2 parts by mass of Alamar Blue fluorescence reagent (product of Wako Pure Chemical Industries, Ltd.) and 8 parts by mass of RPMI1640 medium containing 0.165M of MOPS, which was prepared by dissolving 5.2 g of RPMI1640 (product of Irvine Scientific) and 1.0 g of NaHCO3 in 450 mL of sterile distilled water and thereafter adding 17.12 g of MOPS and stirring, and adjusting the pH value to 7.0 by adding NaOH, and then filling up to 500 mL by adding sterile distilled water. […]
Sixteen hours after the beginning of culturing, the plate was retrieve from the incubator, and the presence of generation (growth) of mycelia in each well (well that had already been fed exclusively by the above-described test drug) used for spore growth inhibition test was evaluated with a microscope. […]

[5] = test system: Aspergillus niger IFO 6341; assay type: cell-based
Description: as §4
More specifically, a slant or plate medium (“potato dextrose agar” medium manufactured by DIFCO was used typically) adhered with spores (conidia) was prepared in advance, and A. niger (IFO 6341; JIS test strain) were gathered from the medium by scratching the medium surface 4 to 5 times from bottom up with a 1 μL disposable loop and suspended in 25 mL of PBS (free of Mg, Ca) solution containing 0.05% of surfactant (Tween® 80). Thereafter, pipetting was performed using a measuring pipette or the like such that clusters of black spores disappeared completely. The spore concentration of the spore suspension prepared by such method was determined using a hemocytometer while the above-described surfactant containing PBS solution was being diluted accordingly, thereby deriving a spore suspension having a spore concentration of approximately 2.5×10^5 spores/mL.
At the same time, the above-described two polypeptides (samples 1, 3) and benzalkonium chloride serving as a comparison for antimycotic activity were dissolved in 10 mM of HEPES buffer (pH7.0) respectively to prepare stock solutions with a 2.0 mg/mL drug concentration. These were sequentially diluted to prepare various kinds of test drugs with drug (each polypeptide or benzalkonium chloride) concentrations of 400, 200, 100, 50, 25, 5 and 0.5 μg/mL.
A spore germination inhibition test and a spore growth inhibition test were performed using the above-prepared drugs and spore suspension as follows.
First, each of the above-described drugs was fed to the 96-well microplate at 40 μL a time for the spore germination inhibition test. The surplus drugs were stored in a refrigerator (4° C.) to be used for the spore growth inhibition test to be perform at a later date.
Next, a test fungus suspension was prepared by adding, with respect to 10 part by mass of the above-described spore suspension, 2 parts by mass of Alamar Blue fluorescence reagent (product of Wako Pure Chemical Industries, Ltd.) and 8 parts by mass of RPMI1640 medium containing 0.165M of MOPS, which was prepared by dissolving 5.2 g of RPMI1640 (product of Irvine Scientific) and 1.0 g of NaHCO3 in 450 mL of sterile distilled water and thereafter adding 17.12 g of MOPS and stirring, and adjusting the pH value to 7.0 by adding NaOH, and then filling up to 500 mL by adding sterile distilled water. Then, the fungus suspension was fed at 160 μL a time to the wells in which the above-described drugs were added. In addition, empty wells in which no drug was added were also fed at 160 μL a time for spore growth inhibition test. After feeding, it was cultured under a humid environment for 16 hours in an incubator at 30° C.
Twenty-four hours and 48 hours after the beginning of culturing, the colour of the mediums in the wells used for spore germination inhibition test and the wells for spore growth inhibition test were observed. Here, those in which the Alamar Blue included within the medium remain blue (oxidized form) were evaluated as positive of antimicrobial activity positive, and those that are pink (reduced form) were evaluated as negative of antimicrobial activity. Moreover, the smallest drug concentration recognized as oxidized form (blue color) was served as MIC (minimum growth inhibitory concentration) in the spore germination inhibition test and the spore growth inhibition test related to the present example.

[6] = Mueller Hinton Broth with cation, 37° C., turbidity after 24 hours

Substance | Antimicrobial Activities (MIC) E. coli ([2]; IFO 3972, 24 h) [µM] | Antimicrobial Activities (MIC) against S. aureus, horse serum concentration 10% (S. aureus) [µM] | Antimicrobial Activities (MIC) S. aureus ([3]; IFO 12732, 24 h) [µM] | Antimicrobial Activities (MIC) E. coli [2, 6] [µM] | Antimicrobial Activities (MIC) against S. aureus, horse serum concentration 10% (S. aureus; horse serum 10%) [µM] | Antimicrobial Activities (MIC) against S. aureus, horse serum concentration 20% (S. aureus) [µM] | Antimicrobial Activities (MIC) against S. aureus, horse serum concentration 50% (S. aureus; horse serum 50%) [µM] | Antimicrobial Activities (MIC) S. aureus [3, 6] [µM] | other results
LKRKLQRVVYWLL-CONH2 (LKRKLQRVVYWLL-NH2) [sample 22] | – | – | – | – | – | – | – | – | MRSA bacterial quantity in intestine content, administered group 1 ([1]; mice, approximately 24 hours after administration, group 1): 36 ×10^3 cells/g; MRSA bacterial quantity in intestine content, administered group 2 ([1]; mice, approximately 24 hours after administration, group 2): 35 ×10^3 cells/g; MRSA bacterial quantity in intestine content, administered group 3 ([1]; mice, approximately 24 hours after administration, group 3): 30 ×10^3 cells/g; MRSA bacterial quantity in intestine content, administered group 4 ([1]; mice, approximately 24 hours after administration, group 4): 16 ×10^3 cells/g; MRSA bacterial quantity in intestine content, administered group 5 ([1]; mice, approximately 24 hours after administration, group 5): 26 ×10^3 cells/g; MRSA bacterial quantity in intestine content, Average ([1]; mice, average of groups 1-5): 29 ×10^3 cells/g; treatment effect on MRSA-infected mice, in words ([1]; compared with vancomycin): exhibited the same effect as the drug including vancomycin
Ac-RKKKRKVLMWWMLR-NH2 [sample 8, Ac-RKKKRKVLMWWMLR-CONH2] | 12.5 | 3.1 | 3.1 | – | – | – | – | – | Antimicrobial Activities (MIC) against S. aureus, horse serum concentration 50% (S. aureus): 6.3 µM
polymyxin B [reference compound] | – | – | – | 1.6 | 6.3 | 6.3 | 3.1 | 6.3 | –
H-RKKKRKVLMWWMLAR-NH2 [sample 6, RKKKRKVLMWWMLAR-CONH2] | – | – | – | 12.5 | 3.1 | 3.1 | 1.6 | 6.3 | –
H-LKRKLQRLMWWML-NH2 [sample 15, LKRKLQRLMWWML-CONH2] | 12.5 | 6.3 | 3.1 | – | – | – | – | – | –
benzalkonium chloride [reference compound] | – | – | – | – | – | – | – | – | MIC against A. niger, spore growth inhibition test after 24 hours [4]: 25 µg/mL; MIC against A. niger, spore germination inhibition test after 24 hours ([5]; after 24 hours): 25 µg/mL; MIC against A. niger, spore germination inhibition test after 48 hours ([5]; after 48 hours): 25 µg/mL
